This note sets out measurements from US20240390379A1, “EZH2 Inhibition in Pancreatic Cancer” (University of Massachusetts, priority 2021, published 2024).

The subject of this assay is KPC1 PDAC cells. Nature of the assay: qRT-PCR of senescence and SASP gene expression in KPC1 PDAC cells with EZH2 methyltransferase inhibitors. The conditions noted are these: GSK126 1 μM or tazemetostat 5 μM with trametinib 25 nM and palbociclib 500 nM, 8 days. The class given is cell-based, mouse. Here is the method:
P values in b-c were calculated using two-tailed, unpaired Student's t-test.
Trametinib (S2673), palbociclib (S1116), and GSK126 (S7061) were purchased from Selleck chemicals for in vitro studies. Drugs for in vitro studies were dissolved in DMSO (vehicle) to yield 10 mM stock solutions and stored at −80° C. For in vitro studies, growth media with or without drugs was changed every 2-3 days.
Total RNA was isolated using the RNeasy Mini Kit (Qiagen), and complementary DNA (cDNA) was obtained using the TaqMan reverse transcription reagents (Applied Biosystems).
Flow cytometry was performed on a BD LSR II, and data were analyzed using FlowJo (TreeStar).
(In general: Quantitative PCR measures a nucleic acid by following its amplification.)

Consider `CC[C@H](C)n1cc(C)c2c(C(=O)NCc3c(C)cc(C)[nH]c3=O)cc(-c3ccc(N4CCNCC4)nc3)cc21` [GSK126], for which the “Pro-inflammatory SASP factors and immunomodulatory cell surface proteins” value is “induced pro-inflammatory SASP factors and immunomodulatory cell surface proteins”; the “Senescence-associated cell cycle arrest” value is on record as “without impacting senescence-associated cell cycle arrest”.
